According to patent US6060608A, “Analogs of CC-1065 and the duocarmycins” (The Scripps Research Institute, priority 1999, dated 2000):

Key:
[1] = test system: w794 DNA, 5'-AATTA high affinity site; assay: Relative rate of DNA alkylation at the w794 5'-AATTA high affinity site; assay type: biochemical, SV40; conditions: 25° C.; for relative rate of DNA alkylation, TMI series: 10^-6 M
Procedure: Rate of DNA Alkylation. The relative rates of DNA alkylation for the natural enantiommers of CCBI-TMI (35) and CCBI-indole2 (37) versus those of the corresponding CBI and MCBI agents were measured at the single high affinity site in w794, 5'-AATTA. The relative rates earlier studies of DNA alkylation for MCBI-TMI, CBI-TMI, and duocarmycin SA were determined to be quite similar at 4° C., 1.8:1.0:0.9, respectively. […] In prior studies, we have highlighted similar observations with agents that span a much larger range of relative reactivities.
The DNA alkylation selectivity and efficiency of the natural enantiomers of 304-307 were compared with that of 1 in w794 DNA. […] These trends in the overall efficiency of DNA alkylation parallel the relative trends in cytotoxic potency.
(§1) DNA Alkylation Relative Rate of (+)-CCBI-TMI (35), (+)-CBI-TMI, and (+)-MCBI-TMI. Following the procedure detailed above, Eppendorf tubes containing 5' end-labeled w794 DNA (9 μL) in TE buffer (pH 7.5) were treated with (+)-CCBI-TMI (35), (+)-CBI-TMI, or (+)-MCBI-TMI (1 μL, 10^-6 M in DMSO). The solutions were mixed and incubated at 25° C. for 2, 4, 6, 9, 12, 15, and 24 h, respectively. Subsequent isolation of the alkylated DNA by EtOH precipitation, resuspension in TE buffer (10 μL, pH 7.5), thermolysis (30 min, 100° C.), PAGE, and autoradiography were conducted as detailed above. Relative rates for alkylation at the w794 high-affinity 5'-AATTA site were derived from the slopes of the plots of percent integrated optical density (IOD) of the high-affinity alkylation cleavage bands versus time.
as §1, with “(+)-CCBI-indole2 (37), (+)-CBI-indole2,” for “(+)-CCBI-TMI (35), (+)-CBI-TMI,”, “(+)-MCBI-indole2.” for “(+)-MCBI-TMI.”, “(+)-CCBI-indole2 (37), (+)-CBI-indole2, and (+)-MCBI-indole2” for “(+)-CCBI-TMI (35), (+)-CBI-TMI, or (+)-MCBI-TMI”

[2] = in vivo; cited from earlier work
[3] = cited from earlier work
[4] = cited from earlier work; remark: listed apart in the source
[5] = test system: w794 duplex DNA; conditions: unnatural enantiomers; prior comparison; cited from earlier work
[6] = test system: w794 DNA, 5'-AATTA high affinity site; conditions: 4° C., earlier studies, 1.8:1.0:0.9; cited from earlier work
[7] = test system: DNA; conditions: cited from earlier work
[8] = test system: L1210; assay: In vitro cytotoxic activity, L1210; conditions: L1210
[9] = test system: calf thymus DNA; assay: DNA alkylation of calf thymus DNA, recovery of unreacted agent; assay type: biochemical; conditions: 37° C., 48-72 h, 1:51 agent:base-pair ratio
Procedure: DNA Alkylation of Calf Thymus DNA. An aliquot of agent (5 μL, 0.01 M in DMSO) was added to a calf thymus DNA solution (0.45 mL, 3.79 mg/mL, 10 mM sodium phosphate, pH 7.0, base-pair:agent=51:1). The DNA-agent mixtures were incubated at 37° C. for 72 h for both enantiomers of 105, 106 and 107 or at 37° C. for 48 h for 108, 109, 110 and 111. For both enantiomers of 105, 106, 108 and 110, the unreacted materials were extracted with EtOAc (0.5 mL×4). The combined extracts were dried and dissolved in EtOAc (0.9 mL) and the quantities of 105, 106, 108, and 110 were determined by UV. Additional extraction with EtOAc (0.5 mL×4) was carried out, and the amounts of combined material were determined by UV. No additional material was recovered. For the ionic agents 107, 109 and 111, the unreacted materials were recovered from the supernatants of EtOH precipitation of the DNA. The EtOH in the supernatant was removed by a stream of N2. The supernatants were diluted to 0.9 mL with H2 O and the recovered quantities of 107, 109, and 111 were determined by UV.
These studies were conducted alongside control reactions conducted in the absence of DNA. An aliquot of agent (5 μL, 0.01 M in DMSO) was added to sodium phosphate buffer (0.45 mL, 10 mM, pH 7.0). The agent-buffer mixtures were incubated at 37° C. for 72 h for both enantiomers of 105, 106 and 107 or at 37° C. for 48 h for 108, 109, 110 and 111. For 105, 106, 108 and 110, the materials were extracted with EtOAc (0.5 mL×4). The combined extracts were dried and dissolved in EtOAc (0.9 mL) and the agent quantities were determined by UV. For the ionic agents 107, 109 and 111, the agent-buffer mixtures were diluted to 0.9 mL with H2 O and their quantities were determined by UV.

[10] = test system: DNA; conditions: cited from earlier work; remark: listed apart in the source
[11] = In vitro cytotoxic activity (cell line not given); assay type: cell-based
[12] = test system: w794 duplex DNA; assay: DNA alkylation selectivity and efficiency within w794 DNA, thermally-induced strand cleavage and PAGE; assay type: biochemical, SV40
In short: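 5′-32P end-labeled w794 duplex DNA in TE buffer (pH 7.2–7.5) incubated with agent in DMSO across concentrations, 4–37 °C for 24–76 h depending on agent. Unbound agent removed by EtOH precipitation; thermolysis 100 °C, 30 min cleaves alkylation sites, mapped by denaturing 8% PAGE beside Sanger standards and autoradiography.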

[13] = test system: w794 DNA, 5'-AATTA high affinity site; assay: Relative rate of DNA alkylation at the w794 5'-AATTA high affinity site; assay type: biochemical, SV40; conditions: 10^-5 M, 25° C., 1-72 h

## O=C(Nc1ccc2[nH]c(C(=O)N3CC4CC45C3=CC(=O)c3ccccc35)cc2c1)c1cc2ccccc2[nH]1 (single isomer, unassigned) [CBI-indole2]
[1]
  relative rate of DNA alkylation, indole2 series: 1.0 ×
[2]
  delayed toxicity: lacked the delayed fatal toxicity
[3]
  cytotoxic potency greater than (+)-CPI-indole2 (U71,184): 4 ×
[4]
  in vivo antitumor activity: potent and efficacious In vivo antitumor activity

## COc1c(O)c2c(c3cc(C(=O)N4CCc5c4c(O)c(OC)c4[nH]c(C(=O)N6CC7CC78C6=CC(=O)c6[nH]cc(C)c68)cc54)[nH]c13)CCN2C(N)=O (single isomer, unassigned) [ent-(-)-CC-1065]
[2]
  delayed toxicity: has not been observed

## COc1cc2cc(C(=O)N3CC4CC45C3=CC(=O)c3ccccc35)[nH]c2c(OC)c1OC (single isomer, unassigned; (-)) [(-)-CBI-TMI]
[5]
  distinction in DNA alkylation efficiency from ent-(-)-duocarmycin SA: 10 ×

## COc1c(O)c2c(c3cc(C(=O)N4CCc5c4c(O)c(OC)c4[nH]c(C(=O)N6CC7CC78C6=CC(=O)c6[nH]cc(C)c68)cc54)[nH]c13)CCN2C(N)=O (single isomer, unassigned; (+)) [(+)-CC-1065]
[2]
  delayed toxicity: delayed fatal toxicity

## COc1ccc2c(c1)C13CC1CN(C(=O)c1cc4cc(OC)c(OC)c(OC)c4[nH]1)C3=CC2=O (single isomer, unassigned) [MCBI-TMI]
[6]
  relative rate of DNA alkylation: 1.8
[1]
  relative rate of DNA alkylation, TMI series: 1.9 ×

## COc1cc2cc(C(=O)N3CC4CC45C3=CC(=O)c3ccccc35)[nH]c2c(OC)c1OC (single isomer, unassigned) [CBI-TMI]
[6]
  relative rate of DNA alkylation: 1.0
[1]
  relative rate of DNA alkylation, TMI series: 1.0 ×

## COC(=O)[C@]1(C)NC2=C(C1=O)[C@@]13C[C@@H]1CN(C(=O)c1cc4cc(OC)c(OC)c(OC)c4[nH]1)C3=CC2=O [duocarmycin A]
[7]
  adenine N3 adduct quantitated: 86-92%

## CSCCCNC(=O)c1csc(-c2csc(CCNC(=O)C(=O)N3CC(CCl)c4c3cc(O)c3ccccc43)n2)n1 (stereo not shown) [compound 105, 3-[2'-(2-(2-(1-Chloromethyl-5-hydroxy-1,2-dihydro-3H-benz[e]indol-3-yl)-1,2-dioxoethyl)aminoethyl)-2,4'-bithiazole-4-carboxamido]propyl Methyl Sulfide]
[8]
  cytotoxic potency in comparison with CBI building block or simple CBI derivatives: approached the cytotoxic potency of 114
[9]
  DNA alkylation of calf thymus DNA: recovered nearly quantitatively

## Cc1c(N)nc([C@H](CC(N)=O)NC[C@H](N)C(N)=O)nc1C(=O)N[C@H](C(=O)N[C@H](C)[C@@H](O)[C@H](C)C(=O)N[C@H](C(=O)NCCc1nc(-c2nc(C(=O)NCCC[S+](C)C)cs2)cs1)[C@@H](C)O)[C@@H](O[C@@H]1O[C@@H](CO)[C@@H](O)[C@H](O)[C@@H]1O[C@H]1O[C@H](CO)[C@@H](O)[C@H](OC(N)=O)[C@@H]1O)c1c[nH]cn1.[Br-] [compound 104]
[10]
  apparent binding site size: 3.8 base-pairs
[10]; dna, read-out: apparent DNA binding constant Kapp
  Kd: 10 µM

## COC(=O)c1cc2c([nH]1)C(=O)C=C1N(C(=O)c3cc4cc(OC)ccc4[nH]3)CC3CC123 (single isomer, unassigned) [compound 305]
[11]
  properties relative to duocarmycin SA or 304: indistinguishable
[11]; listed as (+)-305
  cytotoxic activity relative to duocarmycin SA or 304 (words): indistinguishable from duocarmycin SA
[12]
  DNA alkylation properties, comparison in words: essentially indistinguishable from 1 itself
[13]
  krel, faster than 304: 18-33

## COC(=O)c1cc2c([nH]1)C(=O)C=C1N(C(=O)c3cc4cc(OC)c(OC)c(OC)c4[nH]3)CC3CC123 (stereo not shown) [duocarmycin SA]
[11]
  properties relative to duocarmycin SA or 304: indistinguishable
[7]
  adenine N3 adduct quantitated: 95-100%
[6]
  relative rate of DNA alkylation: 0.9
[12]
  DNA alkylation properties, comparison in words: exhibited the same selectivity and efficiency of DNA alkylation
[12]; 25° C., 24 h
  concentration of detectable alkylation of high affinity site 5'-AATTA: 10^-6 to 10^-7 M
[1]
  relative rate of DNA alkylation, TMI series: 0.9 ×
[13]
  krel, 1 relative to 305: 1.3-2.3
  krel, faster than 304: 18-33
